What all share (type): cell-based
The subject of one assay is NCI-H226. The assay is described as follows: DTP Human Tumor Cell Line Screen, sulforhodamine B assay. As to conditions: Non-Small Cell Lung Cancer, 48 h. The protocol:
(§1) The growth inhibitory activity of propargylic sulfone 3.2 against a wide range of human cancer cell lines was determined calorimetrically with sulforhodamine B assay conducted by the National Cancer Institute of the National Institutes of Health.
(§2) The in vitro cytotoxicity of compounds 2.47, 2.48 and 3.2 were investigated using the DTP Human Tumor Cell Line Screen. The concept, rationale and history of development of the DTP Human Tumor Cell Line Screen were described by Boyd (1993;1997)^8.4, 8.6 and Boyd and Paull (1995)^8.5. Further technical details of the NCI screening procedures were described (Monks, et. al.)^8.2 as were the origins and processing of the cell lines (Alley, et. al., Shoemaker, et. al., Stinson, et. al.). Briefly, cell suspensions that were diluted according to the particular cell type and the expected target cell density (5000-40,000 cells per well based on cell growth characteristics) were added by pipet (100 μL) into 96-well microtiter plates. Inoculates were allowed a preincubation period of 24 h at 37° C. for stabilization. Dilutions at twice the intended test concentration were added at time zero in 100-μL aliquots to the microtiter plate wells. Usually, test compounds were evaluated at five 10-fold dilutions. In routine testing, the highest well concentration is 10E-4 M, but for the standard agents the highest well concentration used depended on the agent. Incubations lasted for 48 h in 5% CO2 atmosphere and 100% humidity. The cells were assayed by using the sulforhodamine B assay (Rubinstein, et. al., Skehan, et. al.). A plate reader was used to read the optical densities, and a microcomputer processed the optical densities into the special concentration parameters.

A further assay deals with HOP-92. The assay is described as above. As to conditions: Non-Small Cell Lung Cancer, 48 h. The protocol:
as §1, §2

In a further assay the test system is UACC-62. Described as above. The conditions noted are these: Melanoma, 48 h. The procedure:
as §1, §2

In a further assay the test system is HT29. Described as above. The conditions noted are these: 48 h. The protocol: as §1, §2
The next assay has as its system HS 578T. The description is as above. As to conditions: Breast Cancer, 48 h. The procedure:
as §1, §2

The subject of a further assay is SF-539. The assay is described as above. As to conditions: CNS Cancer, 48 h. The procedure:
as §1, §2

The test system of a further assay is SF-295. The assay is described as above. As to conditions: CNS Cancer, 48 h. The protocol: as §1, §2
The next assay deals with SF-268. The description is as above. The conditions noted are these: CNS Cancer, 48 h. The procedure: as §1, §2
For another assay, the system named is SNB-19. The description is as above. As to conditions: CNS Cancer, 48 h. The protocol: as §1, §2
In the next assay the test system is SW-620. The assay is described as above. The conditions noted are these: Colon Cancer, 48 h. The protocol:
as §1, §2

The subject of another assay is OVCAR-5. Described as above. The conditions noted are these: Ovarian Cancer, 48 h. The procedure:
as §1, §2

For the next assay, the system named is MDA-MB-435. Described as above. As to conditions: Breast Cancer, 48 h. The procedure: as §1, §2
The next assay relates to T-47D. The assay is described as above. As to conditions: Breast Cancer, 48 h. The protocol:
as §1, §2

For the next assay, the system named is NCI-H522. Described as above. As to conditions: Non-Small Cell Lung Cancer, 48 h. The protocol:
as §1, §2

Another assay deals with human cancer cell lines. The assay is described as follows: Growth inhibition across the human cancer cell line panel (overall statement). As to conditions: wide range of human cancer cell lines, in words. The protocol:
(§3) The growth inhibitory activities of bis(propargylic) sulfone crown ethers 2.47 and 2.48 against B16 murine melanoma cells were determined calorimetrically with an MTT assay conducted by the Institute for Drug Development at the Cancer Research and Therapy Center in San Antonio, Tex.
as §1, §2

Assay [1] deals with B16 murine melanoma cells. As to the kind of experiment: Growth inhibition of B16 murine melanoma cells, MTT assay. The conditions noted are these: B16 melanoma cells; read-out: IC50, growth inhibition. The protocol: as §3
In general terms: Tetrazolium dyes change colour on reduction, which living cells bring about.

The test system of another assay is M14. The assay is described as follows: DTP Human Tumor Cell Line Screen, sulforhodamine B assay. As to conditions: Melanoma, 48 h. The protocol:
as §1, §2

Another assay deals with RPMI-8226. The description is as above. The conditions noted are these: Leukemia, 48 h. The protocol:
as §1, §2

For `O=S1(=O)CC#CCOCCOCCOCCOCCOCCOCC#CC1` [Compound 2.47], the IC50 (usually the concentration that gives 50% inhibition) with NCI-H226 was found to be 39.7 µM; in the assay on HOP-92 it was 10.9 µM; with UACC-62, 0.28 µM; with HT29 (Colon Cancer), 13.8 µM; in the assay on HS 578T, 40.7 µM; in the assay with SF-539, 11.1 µM. For the same compound, the IC50 in the assay on SF-295 is 32 µM; in the assay on SF-268, 24.2 µM; in the assay with SNB-19 it was 18.2 µM; in the assay with SW-620, 10.4 µM; with OVCAR-5, 17.1 µM; in the assay on MDA-MB-435, 13.3 µM. The concentration for half-maximal inhibition (IC50) in the assay on T-47D was determined as 20.6 µM; in the assay with NCI-H522 it was 2.86 µM; in [1], 54.2 µM. Also, the “growth inhibitory properties against human cancer cell lines” value (shortened to “growth inhibitory properties”) in the assay with human cancer cell lines was “display growth inhibitory properties”.
As for `O=S1(=O)CC#CCOCCOCCOCCOCCOCCOCCOCC#CC1` [Compound 2.48], the IC50 was 86.9 µM with NCI-H226; 19.6 µM with HOP-92; 17.1 µM with UACC-62; 18.7 µM with HT29 (Colon Cancer); 52.8 µM with HS 578T; 26.2 µM with SF-539. For the same compound, the IC50 with M14 was 16.9 µM; in the assay on SF-295, 81.2 µM; in the assay with SF-268, 30.5 µM; in the assay with SNB-19 it was 27.9 µM; in the assay on SW-620, 14.3 µM; with OVCAR-5, 18 µM. The IC50 in the assay with MDA-MB-435 turned out to be 20.4 µM; in the assay on RPMI-8226 it was 17.4 µM; in the assay on T-47D it was 24.5 µM; with NCI-H522 it was 10.6 µM; in assay [1], 44.7 µM. The “growth inhibitory properties” value in the assay with human cancer cell lines is “display growth inhibitory properties”.
`O=C(OCC1COCCOCCOCCOCCO1)c1ccc(CS(=O)(=O)CC#CCO)cc1` (centres unmarked) [Compound 3.2]: the IC50 in the assay on NCI-H226 (Homo sapiens) is more than 100 µM; with HOP-92 (Homo sapiens), 41.6 µM; with UACC-62 (Homo sapiens) it was 82.4 µM; with HT29 (Homo sapiens, HT-29, Colon Cancer), more than 100 µM; in the assay with HS 578T (Homo sapiens) it was 80 µM; with SF-539 (Homo sapiens), 46.8 µM. The half-maximal inhibitory concentration (IC50) is more than 100 µM in the assay on M14 (Homo sapiens); more than 100 µM with SF-295 (Homo sapiens); more than 100 µM in the assay with SF-268 (Homo sapiens); more than 100 µM in the assay with SNB-19 (Homo sapiens); 67 µM with SW-620 (Homo sapiens); more than 100 µM with OVCAR-5 (Homo sapiens). The values for the half-maximal inhibitory concentration (IC50) in the assay on MDA-MB-435 (Homo sapiens), with RPMI-8226 (Homo sapiens) and with NCI-H522 (Homo sapiens) were more than 100 µM, 8.4 µM and 18.8 µM, respectively. Also, in the assay on human cancer cell lines, the “growth inhibitory properties” value is listed as “modest growth inhibitory properties”.

For the origin of these results see US20020155443A1, “Metal binding DNA interactive compounds” (priority 2000, published 2002).
